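In this assay, cells in 96-well plates receive the compound at five concentrations for 48 hours. Endpoints are linearly interpolated between the surrounding concentrations. At the GI50, growth is halved. TGI denotes the concentration required for complete inhibition of growth.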
Assays:
Experiment in all cases: inhibition of tumour cell growth, NCI panel, 48 h
SW-620 colon = test system: SW-620 colon
SK-OV-3 ovarian = test system: SK-OV-3 ovarian
HOP-92 NSCLC = test system: HOP-92 NSCLC
UACC-257 melanoma = test system: UACC-257 melanoma
OVCAR-3 ovarian = test system: OVCAR-3 ovarian
OVCAR-8 ovarian = test system: OVCAR-8 ovarian
SK-MEL-5 melanoma = test system: SK-MEL-5 melanoma
HOP-62 NSCLC = test system: HOP-62 NSCLC
ACHN renal = test system: ACHN renal
M14 melanoma = test system: M14 melanoma

SMILES	GI50 (SW-620 colon)	TGI (SW-620 colon)	GI50 (SK-OV-3 ovarian)	TGI (SK-OV-3 ovarian)	GI50 (HOP-92 NSCLC)	TGI (HOP-92 NSCLC)	GI50 (UACC-257 melanoma)	TGI (UACC-257 melanoma)	GI50 (OVCAR-3 ovarian)	TGI (OVCAR-3 ovarian)	GI50 (OVCAR-8 ovarian)	TGI (OVCAR-8 ovarian)	GI50 (SK-MEL-5 melanoma)	TGI (SK-MEL-5 melanoma)	GI50 (HOP-62 NSCLC)	TGI (HOP-62 NSCLC)	GI50 (ACHN renal)	TGI (ACHN renal)	GI50 (M14 melanoma)	TGI (M14 melanoma)
O=C1/C(=C/c2ccccc2O)N=C(c2ccccc2)N1c1cc(C(F)(F)F)ccc1Cl	> 100 µM	> 100 µM	43.7 µM	> 100 µM	19.1 µM	53 µM	> 100 µM	> 100 µM	54.2 µM	> 100 µM	46.3 µM	> 100 µM	62.2 µM	> 100 µM	15.9 µM	30.4 µM	18.6 µM	51.4 µM	62.5 µM	> 100 µM
Clc1nc(Cl)c2ncn(CCOCCn3cnc4c(Cl)nc(Cl)nc43)c2n1	0.212 µM	0.44 µM	1.44 µM	2.77 µM	0.2 µM	0.687 µM	0.235 µM	0.488 µM	0.199 µM	0.346 µM	0.228 µM	0.486 µM	0.37 µM	1.38 µM	0.202 µM	0.36 µM	0.328 µM	0.811 µM	0.287 µM	0.817 µM
COCCOCCOCCOCCOC(=O)OC[n+]1ccc(NC(=NCCCCCCOc2ccc(Cl)cc2)NC#N)cc1	< 0.01 µM	16.3 µM	11.3 µM	23.6 µM	1.7 µM	16.3 µM	7.79 µM	21.8 µM	4.69 µM	19.3 µM	< 0.01 µM	20.8 µM	1.43 µM	11.6 µM	9.58 µM	24.1 µM	10.8 µM	23.4 µM	0.0409 µM	14.7 µM
Nc1nc(C(=O)O)c(N=Nc2ccccc2)c(=O)[nH]1	–	> 100 µM	–	> 100 µM	–	> 100 µM	–	> 100 µM	–	> 100 µM	–	> 100 µM	–	> 100 µM	–	> 100 µM	–	> 100 µM	–	> 100 µM
CCn1ccnc1C(=O)/C=C/c1ccc(CC(=O)Nc2ccc(F)cc2)cc1	4.29 µM	> 16.7 µM	6.97 µM	> 16.7 µM	3.32 µM	8.83 µM	14 µM	> 16.7 µM	3.92 µM	> 16.7 µM	4.86 µM	> 16.7 µM	5.74 µM	> 16.7 µM	3.92 µM	9.93 µM	3.95 µM	11.7 µM	3.02 µM	8.06 µM
NCc1ccc(-c2nc(-c3ccc(Cl)c(O)c3)c(-c3ccncc3)[nH]2)cc1	24.2 µM	> 25 µM	> 25 µM	> 25 µM	2.1 µM	19.6 µM	3.63 µM	17.4 µM	> 25 µM	> 25 µM	> 25 µM	> 25 µM	> 15.4 µM	> 25 µM	> 25 µM	> 25 µM	> 25 µM	> 25 µM	5.47 µM	24.7 µM
[Cl][Cu][Cl]	> 10 µM	> 10 µM	> 10 µM	> 10 µM	> 10 µM	> 10 µM	> 10 µM	> 10 µM	> 10 µM	> 10 µM	> 10 µM	> 10 µM	> 10 µM	> 10 µM	> 10 µM	> 10 µM	> 10 µM	> 10 µM	> 10 µM	> 10 µM
Fc1ccc2nc(-c3nc(-c4ccccc4)n4ccccc34)[nH]c2c1	3.97 µM	17.3 µM	2.4 µM	5.26 µM	1.73 µM	6.42 µM	2.16 µM	4.76 µM	4.29 µM	15.1 µM	1.87 µM	4.1 µM	1.55 µM	3.49 µM	1.94 µM	3.84 µM	2.25 µM	5.94 µM	3.83 µM	14.1 µM
N#Cc1cc2c(cc1Cl)Sc1nnc(Nc3cccc4ccccc34)n1S2(=O)=O	3.61 µM	12.3 µM	17.4 µM	35.1 µM	14.7 µM	30.1 µM	14.8 µM	30.1 µM	1.77 µM	3.47 µM	30.2 µM	> 100 µM	3.95 µM	15.7 µM	15.6 µM	29.6 µM	6.34 µM	19.2 µM	3.81 µM	22.8 µM
COc1ccc(-c2[nH]c3ccccc3c2/C=C(\C#N)S(=O)(=O)c2ccccc2)cc1	0.503 µM	> 100 µM	0.516 µM	> 25.3 µM	1.43 µM	> 20.6 µM	10.7 µM	> 100 µM	0.241 µM	0.673 µM	1.29 µM	> 26.6 µM	0.343 µM	2.73 µM	0.958 µM	> 35.3 µM	1.91 µM	> 100 µM	0.383 µM	14.4 µM
CN(C)CCCn1c2c(c3cc4c(cc3c1=O)OCO4)C(=O)c1ccccc1-2	0.85 µM	> 39.9 µM	4.99 µM	> 39.3 µM	0.713 µM	6.37 µM	1.54 µM	14.9 µM	2.36 µM	6.46 µM	0.0576 µM	0.922 µM	1.93 µM	7.07 µM	< 0.0318 µM	1.43 µM	< 0.0213 µM	0.234 µM	0.0984 µM	1.38 µM
S=C(NCc1ccc2c(c1)OCO2)N1CCN(c2ncnc3c2oc2ccccc23)CC1	> 100 µM	> 100 µM	> 100 µM	> 100 µM	14.3 µM	> 100 µM	1.71 µM	> 33.7 µM	25.2 µM	> 100 µM	5.43 µM	> 100 µM	0.575 µM	3.28 µM	> 100 µM	> 100 µM	> 63.3 µM	> 100 µM	> 71.4 µM	> 100 µM

— PubChem BioAssay (NCI)
